Key:
[1] = Stability of cannabinoid entourage and Vitamin E components of the powder concentrate by LCMSMS; assay type: physicochemical; conditions: powder stored at 21-25° C.
Procedure: At each time period, 0.05 g of powder was dissolved in 10 ml-15 of ethanol, diluted to fall within the analytical range, and injected into the LCMSMS for analysis.

[2] = Stability of cannabinoid compounds and Vitamin E components in Beverage 2 (AB Red) by LCMSMS; assay type: physicochemical; conditions: stored at 8° C.
Procedure: The stability of the plant-derived cannabinoid compounds and Vitamin E components of the beverage stored 8° C. and at room temperature (21-25° C.) were monitored, over a period of 570 days via Liquid Chromatography-tandem Mass Spectrometry [LCMSMS, AGilent 6590, C18, 3×50 mm, 2.7 m (Agilent InfinityLab Poroshell 120 EC-C18), Electrospray Ionization detector]. The LCMSMS was calibrated for 0-50 ng/ml cannabinoids with the same resin material used in the preparation of the concentrates. At each time period, 100 ml of beverage was diluted with 10 ml of methanol and injected into the LCMSMS for analysis.

CCCc1cc(O)c2c(c1)OC(C)(C)[C@@H]1CCC(C)=C[C@@H]21 [THCV, delta-9-tetrahydrocannabivarin]
Stability of Plant-Derived Cannabinoid Compounds in Powder Concentrate ([1]; 0 days): 0.680 mg/g powder
Stability of Plant-Derived Cannabinoid Compounds in Powder Concentrate ([1]; 1 days): 0.685 mg/g powder
Stability of Plant-Derived Cannabinoid Compounds in Powder Concentrate ([1]; 2 days): 0.699 mg/g powder
Stability of Plant-Derived Cannabinoid Compounds in Powder Concentrate ([1]; 3 days): 0.698 mg/g powder
Stability of Plant-Derived Cannabinoid Compounds in Powder Concentrate ([1]; 5 days): 0.676 mg/g powder
Stability of Plant-Derived Cannabinoid Compounds in Powder Concentrate ([1]; 8 days): 0.685 mg/g powder
Stability of Plant-Derived Cannabinoid Compounds in Powder Concentrate ([1]; 9 days): 0.693 mg/g powder
Stability of Plant-Derived Cannabinoid Compounds in Powder Concentrate ([1]; 10 days): 0.706 mg/g powder
Stability of Plant-Derived Cannabinoid Compounds in Powder Concentrate ([1]; 11 days): 0.708 mg/g powder
Stability of Plant-Derived Cannabinoid Compounds in Powder Concentrate ([1]; 12 days): 0.698 mg/g powder
Stability of Plant-Derived Cannabinoid Compounds in Powder Concentrate ([1]; 15 days): 0.684 mg/g powder
Stability of Plant-Derived Cannabinoid Compounds in Powder Concentrate ([1]; 16 days): 0.658 mg/g powder
Stability of Plant-Derived Cannabinoid Compounds in Powder Concentrate ([1]; 17 days): 0.681 mg/g powder
Stability of Plant-Derived Cannabinoid Compounds in Powder Concentrate ([1]; 18 days): 0.690 mg/g powder
Stability of Plant-Derived Cannabinoid Compounds in Powder Concentrate ([1]; 19 days): 0.705 mg/g powder
Stability of Plant-Derived Cannabinoid Compounds in Powder Concentrate ([1]; 22 days): 0.703 mg/g powder
Stability of Plant-Derived Cannabinoid Compounds in Powder Concentrate ([1]; 23 days): 0.687 mg/g powder
Stability of Plant-Derived Cannabinoid Compounds in Powder Concentrate ([1]; 24 days): 0.668 mg/g powder
Stability of Plant-Derived Cannabinoid Compounds in Powder Concentrate ([1]; 25 days): 0.689 mg/g powder
Stability of Plant-Derived Cannabinoid Compounds in Powder Concentrate ([1]; 26 days): 0.686 mg/g powder
Stability of Plant-Derived Cannabinoid Compounds in Powder Concentrate ([1]; 29 days): 0.706 mg/g powder
Stability of Plant-Derived Cannabinoid Compounds in Powder Concentrate ([1]; 30 days): 0.659 mg/g powder
Stability of Plant-Derived Cannabinoid Compounds in Powder Concentrate ([1]; 60 days): 0.702 mg/g powder
Stability of Plant-Derived Cannabinoid Compounds in Powder Concentrate ([1]; 90 days): 0.707 mg/g powder
Stability of Plant-Derived Cannabinoid Compounds in Powder Concentrate ([1]; 120 days): 0.658 mg/g powder
Stability of Plant-Derived Cannabinoid Compounds in Powder Concentrate ([1]; 150 days): 0.695 mg/g powder
Stability of Plant-Derived Cannabinoid Compounds in Powder Concentrate ([1]; 180 days): 0.685 mg/g powder
Stability of Plant-Derived Cannabinoid Compounds in Powder Concentrate ([1]; 210 days): 0.662 mg/g powder
Stability of Plant-Derived Cannabinoid Compounds in Powder Concentrate ([1]; 240 days): 0.700 mg/g powder
Stability of Plant-Derived Cannabinoid Compounds in Powder Concentrate ([1]; 270 days): 0.670 mg/g powder
Stability of Plant-Derived Cannabinoid Compounds in Powder Concentrate ([1]; 300 days): 0.685 mg/g powder
Stability of Plant-Derived Cannabinoid Compounds in Powder Concentrate ([1]; 330 days): 0.691 mg/g powder
Stability of Plant-Derived Cannabinoid Compounds in Powder Concentrate ([1]; 360 days): 0.668 mg/g powder
Stability of Plant-Derived Cannabinoid Compounds in Powder Concentrate ([1]; 390 days): 0.680 mg/g powder
Stability of Plant-Derived Cannabinoid Compounds in Powder Concentrate ([1]; 420 days): 0.671 mg/g powder
Stability of Plant-Derived Cannabinoid Compounds in Powder Concentrate ([1]; 450 days): 0.680 mg/g powder
Stability of Plant-Derived Cannabinoid Compounds in Powder Concentrate ([1]; 480 days): 0.695 mg/g powder
Stability of Plant-Derived Cannabinoid Compounds in Powder Concentrate ([1]; 510 days): 0.696 mg/g powder
Stability of Plant-Derived Cannabinoid Compounds in Powder Concentrate ([1]; 540 days): 0.664 mg/g powder
Stability of Plant-Derived Cannabinoid Compounds in Powder Concentrate ([1]; 570 days): 0.686 mg/g powder
Stability of Plant-Derived Cannabinoid Compounds in AB Red ([2]; 0 days): 3.22 µg/mL
Stability of Plant-Derived Cannabinoid Compounds in AB Red ([2]; 1 days): 3.19 µg/mL
Stability of Plant-Derived Cannabinoid Compounds in AB Red ([2]; 2 days): 3.17 µg/mL
Stability of Plant-Derived Cannabinoid Compounds in AB Red ([2]; 3 days): 3.20 µg/mL
Stability of Plant-Derived Cannabinoid Compounds in AB Red ([2]; 5 days): 3.24 µg/mL
Stability of Plant-Derived Cannabinoid Compounds in AB Red ([2]; 8 days): 3.17 µg/mL
Stability of Plant-Derived Cannabinoid Compounds in AB Red ([2]; 9 days): 3.14 µg/mL
Stability of Plant-Derived Cannabinoid Compounds in AB Red ([2]; 10 days): 3.14 µg/mL
Stability of Plant-Derived Cannabinoid Compounds in AB Red ([2]; 11 days): 3.24 µg/mL
Stability of Plant-Derived Cannabinoid Compounds in AB Red ([2]; 12 days): 3.25 µg/mL
Stability of Plant-Derived Cannabinoid Compounds in AB Red ([2]; 15 days): 3.19 µg/mL
Stability of Plant-Derived Cannabinoid Compounds in AB Red ([2]; 16 days): 3.25 µg/mL
Stability of Plant-Derived Cannabinoid Compounds in AB Red ([2]; 17 days): 3.12 µg/mL
Stability of Plant-Derived Cannabinoid Compounds in AB Red ([2]; 18 days): 3.17 µg/mL
Stability of Plant-Derived Cannabinoid Compounds in AB Red ([2]; 19 days): 3.19 µg/mL
Stability of Plant-Derived Cannabinoid Compounds in AB Red ([2]; 22 days): 3.22 µg/mL
Stability of Plant-Derived Cannabinoid Compounds in AB Red ([2]; 23 days): 3.25 µg/mL
Stability of Plant-Derived Cannabinoid Compounds in AB Red ([2]; 24 days): 3.15 µg/mL
Stability of Plant-Derived Cannabinoid Compounds in AB Red ([2]; 25 days): 3.25 µg/mL
Stability of Plant-Derived Cannabinoid Compounds in AB Red ([2]; 26 days): 3.13 µg/mL

Reference: patent publication US20260130395A1, “Water Dispersible Botanical Compositions” (Aquila Black Limited, priority 2021, published 2026)
